# Values of other authors in paper PMC11247654 (ACS Medicinal Chemistry Letters, 2024).
# Experiments:
# [1] = neutropenic mouse thigh infection assay
substance,measurement,setting,value
Leu10-isobactin A,In vitro activity against MRSA,MRSA,0.5 µg/mL
same,In vivo activity (active dose),[1],3 to 10 mg/kg
